# According to patent US10239832B2, “N-(1-hydroxy-3-(pyrrolidinyl)propan-2-yl)pyrrolidine-3-carboxamide derivatives as glucosylceramide synthase inhibitors” (BIOMARIN PHARMACEUTICAL INC., priority 2013, dated 2019):
# Biological target: T1, GCS (Canis lupus familiaris, UniProt A0A8I3MXG6)
# T1 construct: endogenous in cells; host or cells: MDCK (Madin-Darby canine kidney) cells, whole-cell lysate
# T1 sequence (A0A8I3MXG6 1-394): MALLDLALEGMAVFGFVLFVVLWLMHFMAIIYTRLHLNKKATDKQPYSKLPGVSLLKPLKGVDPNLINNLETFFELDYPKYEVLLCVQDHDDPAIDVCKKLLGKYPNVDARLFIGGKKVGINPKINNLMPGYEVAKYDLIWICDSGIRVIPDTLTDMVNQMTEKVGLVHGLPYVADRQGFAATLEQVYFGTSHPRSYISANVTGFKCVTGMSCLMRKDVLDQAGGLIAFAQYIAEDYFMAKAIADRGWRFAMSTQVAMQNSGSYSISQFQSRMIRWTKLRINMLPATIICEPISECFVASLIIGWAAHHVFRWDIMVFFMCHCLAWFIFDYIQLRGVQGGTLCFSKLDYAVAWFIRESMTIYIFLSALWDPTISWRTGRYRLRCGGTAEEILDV
# Assay: GCS enzymatic assay (MDCK cell lysate, NBD-ceramide to glucosylceramide, LC/MS)
# Assay type: biochemical, canine
# Settings: Table 2; class symbols A, B, C; the table does not say which of the assays; read-out: Data Range (IC50 values)
# Procedure, shortened: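 IC50 or percent inhibition came from LC/MS/MS (ESI+, MRM) of NBD-ceramide and glucosylceramide, with tolbutamide as internal standard. The reaction used MDCK (canine) cell lysate as the enzyme source and was ended with acetonitrile. Mock wells received 0.1% DMSO.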
row,SMILES,IC50
1,"O=C(N[C@H](CN1CCCC1)[C@H](O)c1ccc(OC2CC2)cc1)[C@@H]1CCN(c2ccc3cc(F)ccc3c2)C1 [Compound 162, (R)-N-((1R,2R)-1-(4-cyclopropoxyphenyl)-1-hydroxy-3-(pyrrolidin-1-yl)propan-2-yl)-1-(6-fluoronaphthalen-2-yl)pyrrolidine-3-carboxamide]",1 to 30 nM
2,"O=C(N[C@H](CN1CCCC1)[C@H](O)c1cc(F)c2c(c1)OCCO2)[C@@H]1CCN(c2ccc3ccccc3c2)C1 [Compound 81, (R)-N-((1R,2R)-1-(8-fluoro-2,3-dihydrobenzo[b][1,4]dioxin-6-yl)-1-hydroxy-3-(pyrrolidin-1-yl)propan-2-yl)-1-(naphthalen-2-yl)pyrrolidine-3-carboxamide]",1 to 30 nM
3,"CC(C)(C)Oc1ccc([C@@H](O)[C@@H](CN2CCCC2)NC(=O)[C@@H]2CCN(c3ccc(Cl)cc3)C2)cc1Cl [Compound 135, (R)-N-((1R,2R)-1-(4-(tert-butoxy)-3-chlorophenyl)-1-hydroxy-3-(pyrrolidin-1-yl)propan-2-yl)-1-(4-chlorophenyl)pyrrolidine-3-carboxamide]",1 to 30 nM
4,"O=C(N[C@H](CN1CCCC1)[C@H](O)c1ccc2c(c1)OCCO2)[C@@H]1CCN(c2ccc3cc(Cl)sc3c2)C1 [Compound 76, (R)-1-(2-chlorobenzo[b]thiophen-6-yl)-N-((1R,2R)-1-(2,3-dihydrobenzo[b][1,4]dioxin-6-yl)-1-hydroxy-3-(pyrrolidin-1-yl)propan-2-yl)pyrrolidine-3-carboxamide]",30 to 100 nM
5,"O=C(N[C@H](CN1CCCC1)[C@H](O)c1ccc(OC2CC2)c(Cl)c1)[C@@H]1CCN(c2ccc(Cl)c(Oc3ccc(F)cc3)c2)C1 [Compound 128, (R)-1-(4-chloro-3-(4-fluorophenoxy)phenyl)-N-((1R,2R)-1-(3-chloro-4-cyclopropoxyphenyl)-1-hydroxy-3-(pyrrolidin-1-yl)propan-2-yl)pyrrolidine-3-carboxamide]",1 to 30 nM
6,"O=C(N[C@H](CN1CCCC1)[C@H](O)c1ccc(OC2CCOCC2)c(Cl)c1)[C@@H]1CCN(c2ccc3ccccc3c2)C1 [Compound 94, (R)-N-((1R,2R)-1-(3-chloro-4-((tetrahydro-2H-pyran-4-yl)oxy)phenyl)-1-hydroxy-3-(pyrrolidin-1-yl)propan-2-yl)-1-(naphthalen-2-yl)pyrrolidine-3-carboxamide]",1 to 30 nM
7,"O=C(N[C@H](CN1CCCC1)[C@H](O)c1ccc2c(c1)OCCO2)[C@@H]1CCN(c2ccc(Cl)c(Oc3ccccn3)c2)C1 [Compound 110, (R)-1-(4-chloro-3-(pyridin-2-yloxy)phenyl)-N-((1R,2R)-1-(2,3-dihydrobenzo[b][1,4]dioxin-6-yl)-1-hydroxy-3-(pyrrolidin-1-yl)propan-2-yl)pyrrolidine-3-carboxamide]",1 to 30 nM
8,"O=C(N[C@H](CN1CCCC1)[C@H](O)c1ccc(OC2CC2)c(Cl)c1)[C@@H]1CCN(c2ccc3cc(Cl)sc3c2)C1 [Compound 109, (R)-N-((1R,2R)-1-(3-chloro-4-cyclopropoxyphenyl)-1-hydroxy-3-(pyrrolidin-1-yl)propan-2-yl)-1-(2-chlorobenzo[b]thiophen-6-yl)pyrrolidine-3-carboxamide]",30 to 100 nM
9,"O=C(N[C@H](CN1CCCC1)[C@H](O)c1ccc(OC(F)F)cc1)[C@@H]1CCN(c2ccc(Cl)cc2)C1 [Compound 160, (R)-1-(4-chlorophenyl)-N-((1R,2R)-1-(4-(difluoromethoxy)phenyl)-1-hydroxy-3-(pyrrolidin-1-yl)propan-2-yl)pyrrolidine-3-carboxamide]",30 to 100 nM
10,"CC(C)(O)COc1ccc([C@@H](O)[C@@H](CN2CCCC2)NC(=O)[C@@H]2CCN(c3ccc(Cl)cc3)C2)cc1Cl [Compound 87, (R)-N-((1R,2R)-1-(3-chloro-4-(2-hydroxy-2-methylpropoxy)phenyl)-1-hydroxy-3-(pyrrolidin-1-yl)propan-2-yl)-1-(4-chlorophenyl)pyrrolidine-3-carboxamide]",1 to 30 nM
11,"O=C(N[C@H](CN1CCCC1)[C@H](O)c1ccc(OC2CCOCC2)c(Cl)c1)[C@@H]1CCN(c2ccc3cc(F)ccc3c2)C1 [Compound 50, (R)-N-((1R,2R)-1-(3-chloro-4-((tetrahydro-2H-pyran-4-yl)oxy)phenyl)-1-hydroxy-3-(pyrrolidin-1-yl)propan-2-yl)-1-(6-fluoronaphthalen-2-yl)pyrrolidine-3-carboxamide]",1 to 30 nM
12,"CC1(C)CCc2ccc(N3CC[C@@H](C(=O)N[C@H](CN4CCCC4)[C@H](O)c4ccc5c(c4)OCCO5)C3)cc2O1 [Compound 71, (R)-N-((1R,2R)-1-(2,3-dihydrobenzo[b][1,4]dioxin-6-yl)-1-hydroxy-3-(pyrrolidin-1-yl)propan-2-yl)-1-(2,2-dimethylchroman-7-yl)pyrrolidine-3-carboxamide]",30 to 100 nM
13,"O=C(N[C@H](CN1CCCC1)[C@H](O)c1ccc(Cl)cc1)[C@@H]1CCN(c2ccc(Cl)cc2)C1 [Compound 156, (R)-1-(4-chlorophenyl)-N((1R,2R)-1-(4-chlorophenyl)-1-hydroxy-3-(pyrrolidin-1-yl)propan-2-yl)pyrrolidine-3-carboxamide]",100 to 1000 nM

# Second part, the compound after the results:
row,IC50,SMILES
1,1 to 30 nM,"O=C(N[C@H](CN1CCCC1)[C@H](O)c1ccc(OC2CC2)c(Cl)c1)[C@H]1CCN(c2ccc(Cl)cn2)C1 [Compound 57A, (S)-N-((1R,2R)-1-(3-chloro-4-cyclopropoxyphenyl)-1-hydroxy-3-(pyrrolidin-1-yl)propan-2-yl)-1-(5-chloropyridin-2-yl)pyrrolidine-3-carboxamide]"
2,1 to 30 nM,"O=C(N[C@H](CN1CCC1)[C@H](O)c1cc(F)c2c(c1)OCCO2)C1CCN(c2ccc3cc(Cl)ccc3c2)C1 (stereo partly drawn) [Compound 89F, N-((1R,2R)-3-(azetidin-1-yl)-1-(8-fluoro-2,3-dihydrobenzo[b][1,4]dioxin-6-yl)-1-hydroxypropan-2-yl)-1-(6-chloronaphthalen-2-yl)pyrrolidine-3-carboxamide]"

# Same assay, conditions: Table 2; class symbols D, E, F, NA (not active); the table does not say which of the assays
row,SMILES,Data Range (% inhibition)
1,"O=C(N[C@H](CN1CCCC1)[C@H](O)c1ccc2c(c1)OCCO2)[C@@H]1CCN(c2nc3c(s2)CCCC3)C1 [Compound 36, (R)-N-((1R,2R)-1-(2,3-dihydrobenzo[b][1,4]dioxin-6-yl)-1-hydroxy-3-(pyrrolidin-1-yl)propan-2-yl)-1-(4,5,6,7-tetrahydrobenzo[d]thiazol-2-yl)pyrrolidine-3-carboxamide]",F (1-49% (or less than 50%))
2,"CC1(C)CCc2cc([C@@H](O)[C@@H](CN3CCCC3)NC(=O)[C@H]3CCN(c4ccc(Cl)cc4)C3)ccc2O1 [Compound 51A, (S)-1-(4-chlorophenyl)-N-((1R,2R)-1-(2,2-dimethylchroman-6-yl)-1-hydroxy-3-(pyrrolidin-1-yl)propan-2-yl)pyrrolidine-3-carboxamide]",NA (not active—a negative value was generated for % inhibition)
3,"O=C(N[C@H](CN1CCCC1)[C@H](O)c1ccc2c(c1)OCCO2)[C@@H]1CCN(c2ccc(Cl)cn2)C1 [Compound 28, (R)-1-(5-chloropyridin-2-yl)-N((1R,2R)-1-(2,3-dihydrobenzo[b][1,4]dioxin-6-yl)-1-hydroxy-3-(pyrrolidin-1-yl)propan-2-yl)pyrrolidine-3-carboxamide]",E (50-74% (or less than 75%))

# Second part, the compound after the results:
row,Data Range (% inhibition),SMILES
1,F (1-49% (or less than 50%)),"O=C(N[C@H](CN1CCCC1)[C@H](O)c1ccc(OC2CC2)c(F)c1)[C@H]1CCN(c2ccc(F)cc2)C1 [Compound 69A, (S)-N-((1R,2R)-1-(4-cyclopropoxy-3-fluorophenyl)-1-hydroxy-3-(pyrrolidin-1-yl)propan-2-yl)-1-(4-fluorophenyl)pyrrolidine-3-carboxamide]"
2,F (1-49% (or less than 50%)),"O=C(N[C@H](CN1CCCC1)[C@H](O)c1ccc2c(c1)OCCO2)[C@H]1CCN(c2cnc3cccnc3c2)C1 [Compound 90D, (S)-N-((1R,2R)-1-(2,3-dihydrobenzo[b][1,4]dioxin-6-yl)-1-hydroxy-3-(pyrrolidin-1-yl)propan-2-yl)-1-(1,5-naphthyridin-3-yl)pyrrolidine-3-carboxamide]"
3,F (1-49% (or less than 50%)),"O=C(N[C@H](CN1CCCC1)[C@H](O)c1ccc2c(c1)OCCO2)C1CCN(c2ccc(Cl)cn2)C1 (stereo partly drawn) [Compound 28C, 1-(5-chloropyridin-2-yl)-N-((1R,2R)-1-(2,3-dihydrobenzo[b][1,4]dioxin-6-yl)-1-hydroxy-3-(pyrrolidin-1-yl)propan-2-yl)pyrrolidine-3-carboxamide]"
4,F (1-49% (or less than 50%)),"O=C(N[C@H](CN1CCCC1)[C@H](O)c1ccc2c(c1)OCCO2)[C@H]1CCN(Cc2ccc(Cl)cc2)C1 [Compound 15D, (S)-1-(4-chlorobenzyl)-N-((1R,2R)-1-(2,3-dihydrobenzo[b][1,4]dioxin-6-yl)-1-hydroxy-3-(pyrrolidin-1-yl)propan-2-yl)pyrrolidine-3-carboxamide]"
5,F (1-49% (or less than 50%)),"O=C(NC(CN1CCCC1)[C@H](O)c1cc(F)c2c(c1)OCCO2)[C@H]1CCN(c2ccc3ccccc3n2)C1 (stereo in doubt) [Compound 68C, (S)-N-((1R,2S)-1-(8-fluoro-2,3-dihydrobenzo[b][1,4]dioxin-6-yl)-1-hydroxy-3-(pyrrolidin-1-yl)propan-2-yl)-1-(quinolin-2-yl)pyrrolidine-3-carboxamide]"
